In paper PMC5668910 (Biochemistry and Biophysics Reports, 2015):

Assays:
Parameters in all cases: species or system guinea pig
[1] = biological target: T1, gpBLT1 His83Gly^2.67/Lys88Gly^3.21 (Cavia porcellus, UniProt H0VYV8, H83G/K88G/S309A); assay: saturation binding of LTB4, membrane fraction
[2] = biological target: T2, original gpBLT1 dN15/Ser309Ala (Cavia porcellus, UniProt H0VYV8, S309A); assay: saturation binding of LTB4, membrane fraction
[3] = biological target: T1, gpBLT1 His83Gly^2.67/Lys88Gly^3.21; assay: competitive ligand binding
[4] = biological target: purified gpBLT1 His83Gly^2.67/Lys88Gly^3.21 (Cavia porcellus, UniProt H0VYV8, H83G/K88G/S309A); assay: competitive ligand binding to purified receptor
Sequence of purified gpBLT1 His83Gly^2.67/Lys88Gly^3.21 (H0VYV8 1-348 H83G/K88G/S309A): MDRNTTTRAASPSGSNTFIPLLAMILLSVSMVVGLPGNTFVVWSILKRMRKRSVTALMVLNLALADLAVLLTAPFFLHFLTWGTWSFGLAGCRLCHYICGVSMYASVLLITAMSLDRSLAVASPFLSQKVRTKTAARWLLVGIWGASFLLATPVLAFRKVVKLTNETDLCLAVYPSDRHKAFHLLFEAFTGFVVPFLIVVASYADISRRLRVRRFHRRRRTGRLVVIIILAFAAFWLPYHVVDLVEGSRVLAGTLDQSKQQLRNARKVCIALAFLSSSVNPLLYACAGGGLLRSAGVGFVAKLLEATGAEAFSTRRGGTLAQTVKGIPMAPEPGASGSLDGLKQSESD

[5] = biological target: T2, original gpBLT1 dN15/Ser309Ala; assay: competitive ligand binding

T2 sequence (H0VYV8 16-348 S309A): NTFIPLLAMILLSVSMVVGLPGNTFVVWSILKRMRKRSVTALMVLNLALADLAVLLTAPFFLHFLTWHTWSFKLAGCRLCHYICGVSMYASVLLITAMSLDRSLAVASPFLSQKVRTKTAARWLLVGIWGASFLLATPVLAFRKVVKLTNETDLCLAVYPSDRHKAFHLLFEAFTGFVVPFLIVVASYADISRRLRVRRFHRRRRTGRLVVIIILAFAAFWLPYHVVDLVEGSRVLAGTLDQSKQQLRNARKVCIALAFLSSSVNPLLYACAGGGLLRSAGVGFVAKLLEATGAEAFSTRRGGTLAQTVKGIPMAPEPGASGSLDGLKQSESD
T1 sequence (H0VYV8 1-348 H83G/K88G/S309A): as the sequence (H0VYV8 1-348 H83G/K88G/S309A) above

CCCCC/C=C\C[C@@H](O)/C=C/C=C/C=C\[C@@H](O)CCCC(=O)O [LTB4, leukotriene B4]
Kd [1]: 8.2 nM | Kd [2]: 6.6 nM | Ki [3]: 12.9 nM | IC50 [4]: 2.4 nM | Ki [5]: 3.8 nM
